Laboratory results from patent publication US11180487B2, “Substituted cyanoindoline derivatives as NIK inhibitors” (Janssen Pharmaceutica NV, priority 2016, dated 2021).
Read-outs that look alike come from different tables or passages of the source.

Experiments:
[1] = biological target: recombinant human NF-kappaB-inducing kinase (NIK/MAP3K14) (Homo sapiens, UniProt Q99558); assay: Inhibition of auto-phosphorylation of recombinant human NIK/MAP3K14 activity (AlphaScreen), Biological Assay A; format: biochemical; details: averaged values over all measurements on all batches
recombinant human NF-kappaB-inducing kinase (NIK/MAP3K14), sequence (Q99558 whole entry): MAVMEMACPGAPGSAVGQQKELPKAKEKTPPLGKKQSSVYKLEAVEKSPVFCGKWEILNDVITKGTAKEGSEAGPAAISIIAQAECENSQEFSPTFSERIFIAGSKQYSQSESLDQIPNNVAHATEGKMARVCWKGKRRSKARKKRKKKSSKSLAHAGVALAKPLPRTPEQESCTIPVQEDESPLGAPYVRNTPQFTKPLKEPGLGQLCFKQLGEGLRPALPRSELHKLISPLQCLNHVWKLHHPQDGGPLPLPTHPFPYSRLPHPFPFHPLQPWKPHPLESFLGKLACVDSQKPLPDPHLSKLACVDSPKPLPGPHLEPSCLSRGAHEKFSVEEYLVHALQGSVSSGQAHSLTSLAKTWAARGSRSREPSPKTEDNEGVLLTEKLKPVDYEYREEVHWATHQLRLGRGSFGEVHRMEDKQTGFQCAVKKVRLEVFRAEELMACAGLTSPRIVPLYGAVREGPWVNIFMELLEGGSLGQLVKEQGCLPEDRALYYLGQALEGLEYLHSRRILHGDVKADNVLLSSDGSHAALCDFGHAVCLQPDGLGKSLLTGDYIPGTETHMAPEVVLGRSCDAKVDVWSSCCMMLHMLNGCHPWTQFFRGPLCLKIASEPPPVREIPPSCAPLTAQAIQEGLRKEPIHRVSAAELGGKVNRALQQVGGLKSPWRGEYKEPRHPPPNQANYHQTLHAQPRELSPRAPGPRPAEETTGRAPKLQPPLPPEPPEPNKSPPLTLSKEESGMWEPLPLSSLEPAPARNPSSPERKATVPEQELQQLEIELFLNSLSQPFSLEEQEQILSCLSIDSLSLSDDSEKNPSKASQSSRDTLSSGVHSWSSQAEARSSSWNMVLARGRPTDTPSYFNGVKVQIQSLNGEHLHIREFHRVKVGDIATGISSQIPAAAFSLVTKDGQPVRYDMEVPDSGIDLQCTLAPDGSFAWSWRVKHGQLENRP
Procedure, shortened: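 GST-tagged enzyme (0.2 nM) incubated with compound and 25 μM ATP in 50 mM Tris pH 7.5, 5 mM MgCl2, 1 mM EGTA, 1 mM DTT, 0.1 mM Na3VO4, 1% DMSO, 1 h at 25 °C. Stopped with anti-phospho-IKK Ser176/180 antibody; AlphaScreen bead read, blank-subtracted, IC50 from sigmoidal fit.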

[2] = test system: P-IKKα levels in L363 (NIK translocated multiple myeloma) cells; assay: Effect of compounds on P-IKKα levels in L363 cells (Mesoscale sandwich immuno-assay), Biological Assay B; format: cell-based, human; details: 2 hr treatment, averaged values, read-out: Inhibition of pIKKα_L-363 (IC50 (nM))
Description: Effect of Compounds on P-IKKα Levels in L363 (NIK Translocated Multiple Myeloma) Cells
All compounds tested were dissolved in DMSO and further dilutions were made in culture medium. Final DMSO concentration was 1% (v/v) in cell assays. The human L363 cells (ATCC) were cultured in RPMI 1640 medium supplemented with GlutaMax and 10% fetal calf serum (PAA). Cells were routinely maintained at densities of 0.2×10^6 cells per ml-1×10^6 cells per ml at 37° C. in a humidified 5% CO2 atmosphere. Cells were passaged twice a week splitting back to obtain the low density. Cells were seeded in 96 well plates (Nunc 167008) at 2×10^6 per ml media in a volume of 75 μl per well plus 25 μl 1 μg/ml recombinant human B-cell activating factor (BAFF/BLyS/TNFSF13B). Seeded cells were incubated at 37° C. in a humidified 5% CO2 atmosphere for 24 hr. Drugs and/or solvents were added (20 μl) to a final volume of 120 μl. Following 2 hr treatment plates were removed from the incubator and cell lysis was achieved by the addition of 30 μl 5× lysis buffer followed by shaking on a plate shaker at 4° C. for 10 min. At the end of this incubation lysed cells were centrifuged at 800×g for 20 min at 4° C. and the lysate was assessed for P-IKKα levels by sandwich immuno-assay carried out in anti-rabbit antibody coated Mesoscale plates. Within an experiment, the results for each treatment were the mean of 2 replicate wells. For initial screening purposes, compounds were tested using an 8 point dilution curve (serial 1:3 dilutions). For each experiment, controls (containing MG132 and BAFF but no test drug) and a blank incubation (containing MG132 and BAFF and 10 μM ADS125117, a test concentration known to give full inhibition) were run in parallel. The blank incubation value was subtracted from all control and sample values. To determine the IC50 a sigmoidal curve was fitted to the plot of % inhibition of control P-IKKα levels versus Log10 compound concentration.
Note: Compounds 237 and 238 were tested at a maximum top concentration of 823 nM.

[3] = test system: KMS12-BM (NIK WT) multiple myeloma cells; assay: Antiproliferative activity on KMS12-BM multiple myeloma cells (CellTiter-Glo, 96 hr), Biological Assay C; format: cell-based, human; details: averaged values, read-out: KMS-12 Proliferation inhibition (IC50 (nM))
Procedure, shortened: (§1)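 JJN-3 and KMS12-BM cells in RPMI 1640 with 10% FCS were plated at 15000–20000 cells/well and treated 96 h with a 9-point 1:3 dilution series (0.3% DMSO). Viability read by CellTiter-Glo luminescence, blank (time-zero cells) subtracted, expressed as % of untreated control; duplicate wells.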

[4] = test system: JJN-3 (NIK translocated) multiple myeloma cells; assay: Antiproliferative activity on JJN-3 multiple myeloma cells (CellTiter-Glo, 96 hr), Biological Assay C; format: cell-based, human; details: JJN-3 (NIK translocated) cells, averaged values, read-out: JJN-3 Proliferation inhibition (IC50 (nM))
Procedure, shortened: as §1

| Structure (SMILES) | IC50 [1] [nM] | IC50 ([2]; Homo sapiens, L-363, 2 h) [nM] | melting point [°C] | IC50 ([3]; Homo sapiens, KMS-12-BM, 96 h) [nM] | IC50 ([4]; Homo sapiens, JJN-3, 96 h) [nM] | IC50 [3] [nM] | IC50 [4] [nM] | IC50 [2] [nM] |
| --- | --- | --- | --- | --- | --- | --- | --- | --- |
| COCCOc1ccc(P(C)(C)=O)cc1Nc1nccc(-c2cc(C#N)c3c(c2)[C@@](C)(CO)CN3)n1 [Compound 5] | 2510 | > 10000 | 115 | – | – | – | – | – |
| C[C@]1(CO)CNc2c(C#N)cc(-c3ccnc(Nc4cc(P(C)(C)=O)ccc4OCC4CC4)n3)cc21 [Compound 6] | 447 | > 10000 | 148 | – | – | – | – | – |
| Cc1ccc(C#N)cc1Nc1nccc(-c2cc(C#N)c3c(c2)[C@@](C)(C(C)(C)O)CN3)n1 [Compound 135] | 58.9 | 4370 | 166 | – | – | – | – | – |
| Cc1ccc(C#N)cc1Nc1nccc(-c2cc(C#N)c3c(c2)[C@@](C)(COC(=O)[C@H](C)N)CN3)n1 [Compound 138] | 11.2 | 2.1 | – | ~4790 | 102 | – | – | – |
| Cc1ccc(C#N)cc1Nc1nccc(-c2cc(C#N)c3c(c2)[C@](C)(COS(=O)(=O)O)CN3)n1 [Compound 144] | 5.8 | ~1170 | – | > 10000 | ~10000 | – | – | – |
| Cc1ccc(C#N)cc1Nc1ncc(F)c(-c2cc(C#N)c3c(c2)[C@@](C)(CO)CN3)n1 [Compound 147] | 3.9 | 1.2 | – | > 10000 | 302 | – | – | – |
| [2H]C([2H])(O)c1cc(Nc2nccc(-c3cc(C#N)c4c(c3)[C@@](C)(CO)CN4)n2)c(C)cc1F [Compound 148] | 4.7 | 8.9 | – | > 10000 | 523 | – | – | – |
| [2H]C([2H])(O)c1ccc(C)c(Nc2nccc(-c3cc(C#N)c4c(c3)[C@@](C)(CO)CN4)n2)c1 [Compound 150] | 0.8 | 2.2 | – | > 10000 | 91 | – | – | – |
| Cc1ccc(C(C)(C)O)cc1Nc1nccc(-c2cc(C#N)c3c(c2)[C@@](C)(CO)CN3)n1 [Compound 151] | 22.4 | 427 | 122 | – | – | – | – | – |
| Cc1cc(F)c(CO)cc1Nc1nccc(-c2cc(C#N)c3c(c2)[C@@](C)(CO)CN3)n1 [Compound 152] | 2.3 | 7.8 | – | > 10000 | 272 | – | – | – |
| C[C@]1(CO)CNc2c(C#N)cc(-c3ccnc(Nc4cc(C#N)ccc4CO)n3)cc21 [Compound 153] | 1.3 | 6.3 | – | > 10000 | 240 | – | – | – |
| CC(C)Oc1ccc(CO)cc1Nc1nccc(-c2cc(C#N)c3c(c2)[C@@](C)(CO)CN3)n1 [Compound 154] | 1.4 | 6.6 | – | > 10000 | 141 | – | – | – |
| Cc1ccc(C(=O)NCCN2CCCC2)cc1Nc1nccc(-c2cc(C#N)c3c(c2)[C@@](C)(CO)CN3)n1 [Compound 158] | 5.4 | 91.2 | – | > 10000 | 1230 | – | – | – |
| Cc1ccc(C(=O)N2CCN(C)CC2)cc1Nc1nccc(-c2cc(C#N)c3c(c2)[C@@](C)(CO)CN3)n1 [Compound 161] | 20.4 | 407 | 245 | – | – | – | – | – |
| CNC(=O)c1ccc(OC(C)C)c(Nc2nccc(-c3cc(C#N)c4c(c3)[C@@](C)(CO)CN4)n2)c1 [Compound 162] | 5.5 | 19.5 | – | > 10000 | 288 | – | – | – |
| Cc1ccc(C#N)cc1Nc1nccc(-c2cc(C#N)c3c(c2)[C@@](C)(CF)CN3)n1 [Compound 164] | 26.9 | 288 | 194 | – | – | – | – | – |
| Cc1cc(CCN2CCOCC2)c(C#N)cc1Nc1nccc(-c2cc(C#N)c3c(c2)[C@@](C)(CO)CN3)n1 [Compound 173] | 1.8 | 1.3 | – | > 10000 | 29 | – | – | – |
| CCC(=O)NCC#Cc1cc(C)c(Nc2nccc(-c3cc(C#N)c4c(c3)[C@@](C)(CO)CN4)n2)cc1C#N [Compound 176] | 3.8 | 5.9 | – | > 10000 | 91 | – | – | – |
| C[C@]1(CO)CNc2c(C#N)cc(-c3ccnc(Nc4cc(C#N)ccc4OCCCN)n3)cc21 [Compound 180] | 3.7 | 44.7 | 194 | – | – | – | – | – |
| CC(=O)NCCCOc1ccc(C#N)cc1Nc1nccc(-c2cc(C#N)c3c(c2)[C@@](C)(CO)CN3)n1 [Compound 181] | 5.1 | 7.8 | – | > 10000 | 195 | – | – | – |
| CC(=O)NCCCCc1ccc(C#N)cc1Nc1nccc(-c2cc(C#N)c3c(c2)[C@@](C)(CO)CN3)n1 [Compound 185] | 6.5 | 6.6 | 156 | – | – | – | – | – |
| Cc1ccc(-c2cncn2C)cc1Nc1nccc(-c2cc(C#N)c3c(c2)[C@@](C)(CO)CN3)n1 [Compound 189] | 30.9 | 1620 | 239 | – | – | – | – | – |
| Cc1ccc(-c2ccnn2C)cc1Nc1nccc(-c2cc(C#N)c3c(c2)[C@@](C)(CO)CN3)n1 [Compound 190] | 34.7 | 2630 | 128 | – | – | – | – | – |
| Cc1ccc(CO)cc1Nc1nccc(-c2cc(C#N)c3c(c2)C(C)(CO)CN3)n1 (stereo not drawn) [Compound 215] | 1.5 | 2.9 | – | > 10000 | 199 | – | – | – |
| CN1CCC(Oc2ccc(C#N)cc2Nc2nccc(-c3cc(C#N)c4c(c3)[C@@](C)(CO)CN4)n2)C(F)C1 (stereo partly drawn) [Compound 230] | 6.3 | 7.7 | – | > 10000 | 46 | – | – | – |
| CN1CCC(Oc2ccc(C#N)cc2Nc2nccc(-c3cc(C#N)c4c(c3)[C@@](C)(CO)CN4)n2)C(F)C1 (stereo partly drawn) [Compound 231] | 7.8 | – | – | – | – | > 10000 | 89 | 12.3 |
| CN1CC(F)C(Oc2ccc(C#N)cc2Nc2nccc(-c3cc(C#N)c4c(c3)[C@@](C)(CO)CN4)n2)C1 (stereo partly drawn) [Compound 232] | 5.5 | 11.5 | – | > 10000 | – | – | 282 | – |
| CN1CC(F)C(Oc2ccc(C#N)cc2Nc2nccc(-c3cc(C#N)c4c(c3)[C@@](C)(CO)CN4)n2)C1 (stereo partly drawn) [Compound 233] | 4.6 | – | – | – | – | > 10000 | 741 | 21.4 |
